According to ChEMBL document CHEMBL4346708, “Synthetic approaches and pharmaceutical applications of chloro-containing molecules for drug discovery: A critical review” (Eur J Med Chem, 2019):

Assays:
[1] = Inhibition of porcine pancreatic alpha-amlyase after 10 mins; set-up: species or system Sus scrofa
Erythrocyte = test: Antiinflammatory activity in human erythrocytes assessed as inhibition of hypotonic solution-induced haemolysis after 10 mins by spectrophotometric analysis; format: functional, cell-based
[2] = Anti glycation activity assessed as inhibition of BSA glycation after 7 days in presence of glucose by spectrofluorimetry assay; format: functional
Alpha glucosidase = Alpha glucosidase (Homo sapiens, UniProt O43451+P10253+P14410+Q2M2H8); test: Inhibition of alpha-glucosidase (unknown origin) using p-nitrophenyl-a-d-glucopyranoside as substrate preincubated for 5 mins followed by substrate addition measured after 5 mins by spectrophotometric analysis; format: protein assay
[3] = Antioxidant activity assessed as DPPH radical scavenging activity after 30 mins; format: functional
[4] = biological target: Amyloid-beta precursor protein (Homo sapiens, UniProt P05067); test: Inhibition of amyloid beta (1 to 42) (unknown origin) aggregation
Amyloid-beta precursor protein, sequence (P05067 whole entry): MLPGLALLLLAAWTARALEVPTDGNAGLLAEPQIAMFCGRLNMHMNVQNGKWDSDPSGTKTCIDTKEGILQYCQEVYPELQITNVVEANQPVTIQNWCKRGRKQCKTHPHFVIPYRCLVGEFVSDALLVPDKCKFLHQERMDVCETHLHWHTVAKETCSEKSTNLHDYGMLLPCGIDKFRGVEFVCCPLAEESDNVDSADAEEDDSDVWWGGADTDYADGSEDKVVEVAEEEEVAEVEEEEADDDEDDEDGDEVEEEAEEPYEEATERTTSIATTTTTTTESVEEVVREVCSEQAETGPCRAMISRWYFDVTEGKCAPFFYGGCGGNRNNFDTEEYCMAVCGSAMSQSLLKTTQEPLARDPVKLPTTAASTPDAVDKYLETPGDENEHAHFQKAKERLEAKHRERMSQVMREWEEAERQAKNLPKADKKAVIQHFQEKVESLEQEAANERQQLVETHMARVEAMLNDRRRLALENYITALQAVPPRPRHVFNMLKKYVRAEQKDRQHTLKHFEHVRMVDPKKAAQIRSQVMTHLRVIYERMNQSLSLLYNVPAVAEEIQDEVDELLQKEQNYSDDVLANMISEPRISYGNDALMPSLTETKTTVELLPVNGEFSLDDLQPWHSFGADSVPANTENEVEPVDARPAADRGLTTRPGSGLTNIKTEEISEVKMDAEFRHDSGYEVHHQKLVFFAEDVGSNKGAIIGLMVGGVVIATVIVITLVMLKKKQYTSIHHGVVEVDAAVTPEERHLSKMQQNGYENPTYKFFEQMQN

Compound `O=C(NNC(=S)Nc1ccc(F)cc1)c1cc2cc(Cl)cnc2[nH]1` has an IC50 [1] of 2.03 µM.
Compound `CCCc1nc(C(C)(C)O)c(C(=O)N/N=C/c2ccc(Cl)cc2Cl)[nH]1` has an IC50 (Erythrocyte) of 46 µM.
Compound `O=C(NNC(=S)Nc1ccccc1Cl)c1cc2cc(Cl)ccc2[nH]1` has an IC50 [1] of 2.1 µM.
`Oc1ccc(-c2nc3ncc(Cl)cc3[nH]2)c(O)c1` showed an IC50 [2] of 240 µM.
Work on `Clc1ccc(-c2nnc(/N=C/c3ccc(Cl)cc3Cl)s2)cc1` yielded an IC50 (Alpha glucosidase) of 4.7 µM.
`Oc1ccc(O)c(-c2nc3ncc(Cl)cc3[nH]2)c1` showed an IC50 [3] of 72.5 µM.
`O=c1c2c(F)cccc2[se]n1-c1cc(Cl)c(O)c2ncccc12` showed an IC50 [4] of 9.6 µM.
